According to ChEMBL document CHEMBL1201862, “PubChem BioAssay data set” (2004):
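Exposure lasted 48 hours, with cells grown in 96-well plates and compounds tested at five concentrations. Here, GI50 denotes the concentration required for 50% inhibition of growth.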 Activity calls are given as the source filed them. Rule as the data show it: active = GI50 up to about 1.1 µM and inactive = higher.

How the values were obtained:
Experiment in all cases: NCI-60 cell line screen, 48 h
UACC-257 = system: UACC-257
COLO 205 = system: COLO 205
IGROV-1 = system: IGROV-1
SK-MEL-5 = system: SK-MEL-5
Hs-578T = system: Hs-578T
MDA-MB-231 = system: MDA-MB-231
CAKI-1 = system: CAKI-1
KM12 = system: KM12
HOP-92 = system: HOP-92
HCT-15 = system: HCT-15
M14 = system: M14
UO-31 = system: UO-31
U-251 = system: U-251
NCI/ADR-RES = system: NCI/ADR-RES
HOP-62 = system: HOP-62
A549 = system: A549
ACHN = system: ACHN
BT-549 = system: BT-549
DU-145 = system: DU-145
EKVX = system: EKVX
RXF 393 = system: RXF 393
OVCAR-4 = system: OVCAR-4
MDA-MB-435 = system: MDA-MB-435
HCC 2998 = system: HCC 2998
NCI-H23 = system: NCI-H23
HL-60 = system: HL-60
SF-295 = system: SF-295
786-0 = system: 786-0
NCI-H226 = system: NCI-H226
SK-OV-3 = system: SK-OV-3
HT-29 = system: HT-29
K562 = system: K562
MOLT-4 = system: MOLT-4
SF-539 = system: SF-539
OVCAR-5 = system: OVCAR-5
SF-268 = system: SF-268
SNB-19 = system: SNB-19
SW-620 = system: SW-620
MCF7 = system: MCF7
SR = system: SR
T47D = system: T47D
UACC-62 = system: UACC-62
PC-3 = system: PC-3
NCI-H522 = system: NCI-H522
Malme-3M = system: Malme-3M
HCT-116 = system: HCT-116
SK-MEL-28 = system: SK-MEL-28
OVCAR-8 = system: OVCAR-8
LOX IMVI = system: LOX IMVI
CCRF-CEM = system: CCRF-CEM
OVCAR-3 = system: OVCAR-3
TK-10 = system: TK-10
A498 = system: A498
SNB-75 = system: SNB-75
SK-MEL-2 = system: SK-MEL-2
MDA-N = system: MDA-N
RPMI-8226 = system: RPMI-8226
NCI-H460 = system: NCI-H460
SN12C = system: SN12C

Measured: GI50

N#Cc1c(-c2ccc(Cl)cc2)cc(-c2ccc(Nc3ccnc4cc(Cl)ccc34)cc2)[nH]c1=O
inactive: UACC-257 > 100 µM | COLO 205 > 100 µM | IGROV-1 > 100 µM | SK-MEL-5 > 100 µM | Hs-578T 16.5 µM | MDA-MB-231 34.4 µM | CAKI-1 > 100 µM | KM12 > 61 µM | HOP-92 18.1 µM | M14 > 100 µM | UO-31 > 100 µM | U-251 15.5 µM | NCI/ADR-RES > 100 µM | HOP-62 15.1 µM | A549 > 100 µM | ACHN 32 µM | BT-549 19.6 µM | DU-145 99.3 µM | EKVX > 82.2 µM | RXF 393 30.4 µM | OVCAR-4 > 100 µM | MDA-MB-435 > 100 µM | HCC 2998 > 100 µM | NCI-H23 24.7 µM | HL-60 > 100 µM | SF-295 16.6 µM | 786-0 17.6 µM | NCI-H226 > 100 µM | SK-OV-3 34.7 µM | HT-29 > 100 µM | K562 > 54.5 µM | MOLT-4 > 58.6 µM | SF-539 > 95.7 µM | OVCAR-5 > 61.7 µM | SF-268 26.2 µM | SNB-19 27.7 µM | SW-620 > 100 µM | MCF7 > 100 µM | SR > 52.5 µM | T47D > 100 µM | UACC-62 > 100 µM | PC-3 > 100 µM | NCI-H522 > 38.6 µM | Malme-3M > 65.8 µM | HCT-116 44.2 µM | SK-MEL-28 > 100 µM | OVCAR-8 > 100 µM | LOX IMVI 31.6 µM | CCRF-CEM 16 µM | OVCAR-3 > 100 µM | TK-10 13.1 µM | A498 50.4 µM | SNB-75 14.6 µM | SK-MEL-2 31.4 µM | MDA-N > 100 µM | RPMI-8226 > 62.5 µM | NCI-H460 > 100 µM
> 100 µM: HCT-15

O=C(c1ccccc1)c1ccc2nc3n(c2c1)C(c1c(F)cccc1F)SC3 (centres undefined)
active: SR 0.847 µM
3.16 µM: HCT-15
inactive: UACC-257 18.1 µM | COLO 205 4 µM | IGROV-1 5.05 µM | SK-MEL-5 4.08 µM | Hs-578T 8.55 µM | MDA-MB-231 12.9 µM | CAKI-1 5.13 µM | SN12C 7.69 µM | KM12 2.82 µM | HOP-92 10.9 µM | M14 3.46 µM | UO-31 5.4 µM | U-251 6.67 µM | NCI/ADR-RES 2.99 µM | HOP-62 8.81 µM | A549 4.79 µM | ACHN 3.85 µM | BT-549 17.3 µM | DU-145 11.3 µM | EKVX 3.56 µM | RXF 393 13.2 µM | OVCAR-4 7.8 µM | MDA-MB-435 1.45 µM | HCC 2998 5.25 µM | NCI-H23 9.4 µM | HL-60 2.03 µM | SF-295 3.2 µM | 786-0 4.2 µM | NCI-H226 30.6 µM | SK-OV-3 4.1 µM | HT-29 4.93 µM | K562 3.31 µM | MOLT-4 2.74 µM | SF-539 10.3 µM | OVCAR-5 5.74 µM | SF-268 9.66 µM | SNB-19 4.98 µM | SW-620 3.18 µM | MCF7 3.85 µM | T47D 4.49 µM | UACC-62 4.47 µM | PC-3 6.89 µM | NCI-H522 2.01 µM | Malme-3M 5.68 µM | HCT-116 3.26 µM | SK-MEL-28 22.3 µM | OVCAR-8 9.33 µM | LOX IMVI 6.11 µM | CCRF-CEM 4.76 µM | OVCAR-3 4.9 µM | TK-10 22.9 µM | A498 3.7 µM | SNB-75 4.17 µM | SK-MEL-2 8.3 µM | MDA-N 1.34 µM | RPMI-8226 4.62 µM | NCI-H460 3.98 µM

Cc1nnc2cc(C(=O)O)c3ccccc3n2c1=O
inactive: UACC-257 > 10 µM | COLO 205 > 10 µM | IGROV-1 > 10 µM | SK-MEL-5 > 10 µM | Hs-578T > 10 µM | MDA-MB-231 > 10 µM | CAKI-1 > 10 µM | SN12C > 10 µM | HOP-92 > 10 µM | M14 > 10 µM | UO-31 > 10 µM | U-251 > 10 µM | NCI/ADR-RES > 10 µM | HOP-62 > 10 µM | A549 > 10 µM | BT-549 > 10 µM | DU-145 > 10 µM | EKVX > 10 µM | RXF 393 > 10 µM | OVCAR-4 > 10 µM | MDA-MB-435 > 10 µM | HCC 2998 > 10 µM | NCI-H23 > 10 µM | HL-60 > 10 µM | SF-295 > 10 µM | 786-0 > 10 µM | NCI-H226 > 10 µM | SK-OV-3 > 10 µM | HT-29 > 10 µM | K562 > 10 µM | MOLT-4 > 10 µM | SF-539 > 10 µM | OVCAR-5 > 10 µM | SF-268 > 10 µM | SNB-19 > 10 µM | SW-620 > 10 µM | MCF7 > 10 µM | SR > 10 µM | T47D > 10 µM | UACC-62 > 10 µM | PC-3 > 10 µM | NCI-H522 > 10 µM | Malme-3M > 10 µM | HCT-116 > 10 µM | SK-MEL-28 > 10 µM | OVCAR-8 > 10 µM | LOX IMVI > 10 µM | CCRF-CEM > 10 µM | OVCAR-3 > 10 µM | TK-10 > 10 µM | A498 > 10 µM | SNB-75 2.55 µM | SK-MEL-2 > 10 µM | MDA-N > 10 µM | RPMI-8226 > 10 µM | NCI-H460 > 10 µM
> 10 µM: HCT-15
